The assay addresses T1, full length AKT1 (Homo sapiens, UniProt P31749).
T1 construct: His tag (from vector pFastBacHTb; purified on Nickel Sepharose) (N); made in house; host or cells: baculovirus; Sf9 / T. ni insect cells
Put plainly: Full-Length AKT Enzyme Assay (substrate phosphorylation, SPA). The format is biochemical. The settings on record: in at least one experimental run; pIC50 = -log(IC50), IC50 in molar units; 10 nM activated AKT enzyme, 4 uM ATP, 8 uM peptide; read-out: pIC50 value against full length AKT1 (converted). The text has this: Cloning of Full-Length Human (FL) AKT1:
Full-length human AKT1 gene was amplified by PCR from a plasmid containing myristylated-AKT1-ER (gift from Robert T. Abraham, Duke University under MTA, described in Klippel et al. in Molecular and Cellular Biology 1998 Volume 18 p. 5699) using the 5′ primer: SEQ. ID NO: 2 5′ […] 3′ and the 3′ primer: SEQ. ID NO: 3 […] 3′. The 5′ primer included a BamHI site and the 3′primer included an XhoI site for cloning purposes. The resultant PCR product was subcloned in pcDNA3 as a BamHI/XhoI fragment. A mutation in the sequence (TGC) coding for a Cysteine^25 was converted to the wild-type AKT1 sequence (CGC) coding for an Arginine^25 by site-directed mutagenesis using the QuikChange® Site Directed Mutagenesis Kit (Stratagene). The AKT1 mutagenic primer: SEQ. ID NO: 4 5′ […] and selection primer: SEQ. […] For expression/purification purposes, AKT1 was isolated as a BamHI/XhoI fragment and cloned into the BamHI/XhoI sites of pFastbacHTb (Invitrogen).
Expression was done using the BAC-to-BAC Baculovirus Expression System from Invitrogen (catalog #10359-016). […]
Compounds of the present invention were tested for AKT 1, 2, and 3 protein serine kinase inhibitory activity in substrate phosphorylation assays. […] Substrate phosphorylation was detected by the following procedure. […]

T1 sequence (P31749 whole entry): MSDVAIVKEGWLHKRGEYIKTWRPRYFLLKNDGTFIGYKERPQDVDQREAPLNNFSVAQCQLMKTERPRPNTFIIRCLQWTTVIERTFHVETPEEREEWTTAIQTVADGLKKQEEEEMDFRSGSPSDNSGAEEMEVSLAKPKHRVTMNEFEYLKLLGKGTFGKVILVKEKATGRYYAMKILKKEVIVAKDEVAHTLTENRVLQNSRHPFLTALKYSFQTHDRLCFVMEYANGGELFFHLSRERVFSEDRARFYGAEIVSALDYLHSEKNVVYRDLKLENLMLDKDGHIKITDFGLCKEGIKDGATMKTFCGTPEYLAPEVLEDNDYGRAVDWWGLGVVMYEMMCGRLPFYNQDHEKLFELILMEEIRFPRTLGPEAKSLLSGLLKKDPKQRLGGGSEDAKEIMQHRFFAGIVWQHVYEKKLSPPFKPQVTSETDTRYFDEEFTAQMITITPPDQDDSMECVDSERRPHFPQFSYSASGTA

For the compound `Cn1nccc1-c1ccc(C(=O)NC(CN)Cc2ccccc2)cn1` (stereo not shown) [Example 2, N-[2-amino-1-(phenylmethyl)ethyl]-6-(1-methyl-1H-pyrazol-5-yl)-3-pyridinecarboxamide], the IC50 was 10 nM.

For the origin of these results see patent US8338434B2, “Inhibitors of Akt activity” (GlaxoSmithKline LLC, priority 2007, dated 2012).
